Assay results as given in the supplement of paper PMC10307832.

Compound: Cn1nnc2c(C(N)=O)ncn2c1=O [Temozolomide] + N=C(N)NC(=N)NCCc1ccccc1 [Phenformin] (partner 250 µM)
Test: relative viability (nuclei count vs DMSO), 5 days (fraction); higher = more cells survive
Conditions: first compound 20 µM
Outline: (§1)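 A single step with final 0.05% Triton X-100, 1% formaldehyde and 1 ug/ml Hoechst fixed the cells and stained nuclei 5 days after treatment. Lung cancer cell lines in 1536-well plates had been treated by pin tool the day after seeding with one drug alone or a fixed anchor-drug dose plus five library-drug doses (not always all listed) in √10 steps, and nuclei were counted on 4× images. Relative viability is the ratio of nuclei in treated wells to nuclei in vehicle wells, taken as the median of duplicate plates.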

In order of rising relative viability:
1. LK-2  0.194
2. NCI-H1944  0.2
3. NCI-H647  0.208
4. NCI-H358  0.257
5. NCI-H1915  0.259
6. NCI-H661  0.27
7. NCI-H1792  0.271
8. NCI-H1650  0.311
9. LCLC-103H  0.322
10. NCI-H1793  0.323
11. NCI-H1437  0.34
12. NCI-H1734  0.342
13. NCI-H1651  0.351
14. NCI-H650  0.423
15. NCI-H1355  0.452
16. LXF-289  0.458
17. NCI-H1395  0.461
18. LOU-NH91  0.476
19. NCI-H460  0.478
20. NCI-H1755  0.532
21. NCI-H727  0.544
22. NCI-H322M  0.574
23. NCI-H520  0.589
24. NCI-H1666  0.594
25. NCI-H522  0.629
26. NCI-H838  0.635
27. NCI-H23  0.791
28. LU99A  0.803
29. NCI-H441  0.944

Compound: C[C@@H](C(=O)N[C@@H](C1CCCCC1)C(=O)N2CCC[C@H]2C(=O)N[C@@H]3[C@@H](CC4=CC=CC=C34)OCC#CC#CCO[C@@H]5CC6=CC=CC=C6[C@@H]5NC(=O)[C@@H]7CCCN7C(=O)[C@H](C8CCCCC8)NC(=O)[C@H](C)NC)NC [AZD5582] + COc1cccc2cc(-c3nc([C@H]4CC[C@H](C(=O)O)CC4)n4ncnc(N)c34)[nH]c12 [OSI-027] (partner 0.5 µM)
Test: as above
Conditions: first compound 0.001581 µM
Outline: as §1

In order of rising relative viability:
1. NCI-H1793  0.2
2. LK-2  0.237
3. LU99A  0.259
4. NCI-H520  0.261
5. NCI-H838  0.339
6. NCI-H1355  0.355
7. NCI-H1944  0.369
8. HCC-78  0.382
9. LCLC-97TM1  0.4
10. NCI-H23  0.403
11. HCC-44  0.42
12. NCI-H650  0.431
13. LCLC-103H  0.465
14. NCI-H322M  0.508
15. NCI-H727  0.51
16. NCI-H441  0.536
17. NCI-H1915  0.559
18. NCI-H1755  0.567
19. NCI-H647  0.599
20. NCI-H1650  0.599
21. NCI-H661  0.6
22. NCI-H460  0.614
23. HCC-827  0.618
24. NCI-H1666  0.65
25. HCC-366  0.654
26. NCI-H1651  0.667
27. NCI-H522  0.671
28. NCI-H358  0.677
29. NCI-H1792  0.679
30. NCI-H1734  0.691
31. NCI-H1395  0.7
32. LXF-289  0.71
33. HOP-62  0.727
34. LOU-NH91  0.752
35. NCI-H1437  0.787
36. LC-2-ad  0.823

Same assay, conditions: first compound 0.005 µM

In order of rising relative viability:
1. NCI-H520  0.21
2. LK-2  0.257
3. LU99A  0.295
4. NCI-H1793  0.301
5. HCC-44  0.39
6. HCC-78  0.406
7. NCI-H838  0.423
8. NCI-H1944  0.428
9. NCI-H23  0.45
10. NCI-H1355  0.468
11. NCI-H727  0.473
12. LCLC-103H  0.486
13. NCI-H650  0.509
14. LCLC-97TM1  0.567
15. NCI-H441  0.582
16. NCI-H1915  0.64
17. NCI-H1755  0.673
18. NCI-H1666  0.696
19. NCI-H647  0.704
20. NCI-H1734  0.704
21. NCI-H522  0.711
22. NCI-H322M  0.713
23. NCI-H661  0.725
24. NCI-H1395  0.734
25. LOU-NH91  0.739
26. NCI-H460  0.774
27. NCI-H1651  0.813
28. HOP-62  0.837
29. HCC-827  0.84
30. NCI-H1650  0.859
31. NCI-H1792  0.872
32. NCI-H1437  0.893
33. LXF-289  0.907
34. NCI-H358  0.962
35. HCC-366  0.995
36. LC-2-ad  1.05

Same assay, conditions: first compound 0.01581 µM

In order of falling relative viability:
1. NCI-H522  0.861
2. HOP-62  0.83
3. NCI-H358  0.821
4. NCI-H1666  0.808
5. NCI-H1437  0.77
6. HCC-827  0.761
7. NCI-H1792  0.73
8. LC-2-ad  0.725
9. NCI-H661  0.722
10. LOU-NH91  0.705
11. NCI-H460  0.642
12. NCI-H1734  0.595
13. NCI-H1395  0.583
14. NCI-H1755  0.58
15. NCI-H1650  0.547
16. NCI-H727  0.508
17. LCLC-97TM1  0.496
18. LXF-289  0.495
19. NCI-H1915  0.475
20. NCI-H647  0.463
21. NCI-H1944  0.412
22. LCLC-103H  0.375
23. NCI-H650  0.364
24. HCC-78  0.33
25. NCI-H1355  0.288
26. HCC-44  0.251
27. NCI-H23  0.245
28. LU99A  0.243
29. NCI-H520  0.224
30. NCI-H1793  0.212
31. LK-2  0.197

Same assay, conditions: first compound 0.05 µM

In order of rising relative viability:
1. LK-2  0.179
2. NCI-H23  0.21
3. HCC-44  0.255
4. LU99A  0.287
5. HCC-78  0.311
6. LCLC-103H  0.37
7. LCLC-97TM1  0.382
8. NCI-H322M  0.562
9. NCI-H441  0.651
10. LOU-NH91  0.711
11. NCI-H358  0.777
12. NCI-H460  0.779
13. LXF-289  0.792
14. HOP-62  0.83
15. HCC-827  0.855
16. HCC-366  0.934
17. LC-2-ad  0.957
